Results on two compounds are retold here after PMC11356571, “The Comparative Metabolism of a Novel Hepatocellular Carcinoma Therapeutic Agent, 2,3-Diamino-N-(4-(benzo[d]thiazol-2-yl)phenyl)propanamide, in Human and Animal Hepatocytes” (Metabolites, 2024).

The target of one series is T1, CYP1A2 (Homo sapiens, UniProt P05177).
T1 construct: purchased Cypex Ltd. (Dundee, UK)
T1 sequence (P05177 1-516): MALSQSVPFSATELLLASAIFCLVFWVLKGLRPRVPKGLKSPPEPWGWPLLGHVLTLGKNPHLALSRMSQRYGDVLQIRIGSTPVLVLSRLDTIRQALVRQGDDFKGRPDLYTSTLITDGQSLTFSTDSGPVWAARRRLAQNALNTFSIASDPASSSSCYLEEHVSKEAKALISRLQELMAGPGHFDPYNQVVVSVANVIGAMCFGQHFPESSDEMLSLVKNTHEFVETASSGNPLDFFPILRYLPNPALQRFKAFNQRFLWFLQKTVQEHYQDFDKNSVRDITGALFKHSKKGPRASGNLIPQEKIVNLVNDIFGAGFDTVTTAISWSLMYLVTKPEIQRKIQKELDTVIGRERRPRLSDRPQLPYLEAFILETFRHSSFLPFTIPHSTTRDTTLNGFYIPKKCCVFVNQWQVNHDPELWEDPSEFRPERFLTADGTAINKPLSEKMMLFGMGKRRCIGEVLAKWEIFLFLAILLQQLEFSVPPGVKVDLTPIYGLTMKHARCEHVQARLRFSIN
In words: Incubation with human cDNA-expressed CYP1A2. The note with it: CYP1A2, 30 min at 37 °C with NADPH; ETN101 10 μM or M1 1 μM. In kind it is in vitro ADME. Here is the method:
ETN101 or M1 was incubated with nine human cDNA-expressed CYP enzymes (1A2, 2A6, 2B6, 2C8, 2C9, 2C19, 2D6, 2E1, and 3A4) to identify the CYPs involved in the metabolism of ETN101. Based on the preliminary study, the incubation conditions were determined as follows: Briefly, reaction mixtures of 50 μL containing ETN101 (final concentration: 10 μM) or M1 (final concentration: 1 μM), and CYPs (final amount: 5 pmol for CYP1A2, 2A6, 2C8, 2C9, 2C19, 2D6, and 3A4; 10 pmol for CYP2B6 and 2E1) were prepared in 0.1 M potassium phosphate buffer. The reaction was initiated by adding 50 μL of NADPH- regenerating system; the mixtures were incubated for 0 min or 30 min at 37 °C in triplicate. Reactions were terminated by the addition of 100 μL of ice-cold acetonitrile containing the IS (camptothecin, 200 ng/mL). Samples were centrifuged at 13,000 rpm for 5 min at 4 °C. An aliquot of 2 μL supernatant was injected in LC–MS/MS system.
For enzyme characterization, an Agilent 6460 triple quadrupole mass spectrometer coupled with a 1260 HPLC system (Agilent Technologies, Santa Clara, CA, USA) and a Kinetex Halo® C18 column (2.7 μm, 2.1 × 50 mm, Advanced Material Technology, Wilmington, DE, USA) were used for chromatographic separation. […] ETN101, M1, and M2 were detected via MRM using ESI in the positive mode. […]

Another series relates to rat hepatocytes. In words: Metabolite characterization in rat hepatocytes. The format is in vitro ADME. The note with it: rat hepatocyte 1 h incubates of ETN101; ND:<1.2E+05 peak area. As for the experimental part: We mixed 60 μL aliquots of 40 μM ETN101 in incubation medium and an equal volume of human, mouse, rat, dog, or monkey hepatocyte suspension in 96-well plates and incubated for 0 or 1 h in a CO2 incubator at 37 °C. The reactions were quenched by adding 120 µL of ice-cold acetonitrile to each well, and the cell suspension was sonicated for 5 min at 4 °C. Subsequently, centrifugation was carried out at 15,000× g for 10 min at 4 °C. Next, the supernatants were evaporated to dryness using a vacuum concentrator, and residues were re-dissolved in 70 μL of 30% acetonitrile. Each sample (5 μL aliquots) was analyzed using LC–HRMS system.
For metabolite characterization, a Vanquish HPLC system (Thermo Fisher Scientific, San José, CA, USA) coupled with a Q-Exactive Orbitrap mass spectrometer (Thermo Fisher Scientific Inc., Waltham, MA, USA) was used at Core Research Support Center for Natural Products and Medical Materials at Yeungnam University. […] The eluent from the column was directly injected into the mass spectrometer using a heated electrospray ionization (HESI) source in positive ionization mode. […] The spray voltage was 3.0 kV and the capillary temperature was 320 °C. Full scan MS^1 with a data-dependent MS^2 acquisition mode was applied to obtain MS^1 scan data ranging from m/z 80 to 900, at a resolution of 70,000, whereas data-dependent MS^2 spectra were acquired for the five most abundant peaks per cycle at a resolution of 35,000. The parallel reaction monitoring (PRM) mode was used to obtain the MS^2 spectra of putative metabolites detected at low peak intensities in the data-dependent MS^2 acquisition mode. Data were collected and interpreted using Thermo Scientific Xcalibur™ Software (Thermo Fisher Scientific).

On to `NCC(N)C(=O)Nc1ccc(-c2nc3ccccc3s2)cc1` (stereo not shown) [ETN101, 2,3-diamino-N-(4-(benzo[d]thiazol-2-yl)phenyl)propanamide], for which the Percentage remaining on CYP1A2 worked out at 126.3%. The “Relative peak area (%)” value with rat hepatocytes is given as 18.7%.

In the case of `Nc1ccc(-c2nc3ccccc3s2)cc1` [M1, 2-(4-aminophenyl)benzothiazole], at CYP1A2, the Percentage remaining worked out at 5.3%. Further, the “Relative peak area (%)” value in the series with rat hepatocytes turned out to be 75.2%.
